Source: patent US9238039B2, “Pyrazolo[1,5-A]pyrimidines for antiviral treatment” (Gilead Sciences, Inc., priority 2010, dated 2016)

Each molecule was assayed on RSV strain A2 (assay: RSV antiviral cytoprotection assay in Hep2 cells (96-well and 384-well format, Cell TiterGlo read-out)). Details: human respiratory syncytial virus, HEp-2, 0.5 uM; RSV-induced cytopathic effect in Hep2 cells; calculated from fitted dose response curve, normalized to 0% and 100%.
Type: cell-based, Respiratory Syncytial Virus (RSV)
`Cc1ccc(NS(C)(=O)=O)c(C(=O)N2CCCC[C@H]2c2cc3nc(N4CC[C@H](N)C4)c(C)cn3n2)c1` [Compound 190] was tested, and the inhibition at 0.5 µM was 100%.
`Cc1ccc(NS(C)(=O)=O)c(C(=O)N2CCCC[C@H]2c2cc3nc(N4CC(N)C4)c(C)cn3n2)c1` [Compound 191] showed an inhibition at 0.5 µM of 100%.
`Cc1cn2nc([C@@H]3CCCCN3C(=O)c3cc(N)ccc3NS(C)(=O)=O)cc2nc1N1CC(O)C1` [Compound 192] was tested, and the inhibition at 0.5 µM was 100%.
Work on `CS(=O)(=O)Nc1ccc(N)cc1C(=O)N1CCCC[C@H]1c1cc2nc(N3CCC3)cc(N3CCOCC3)n2n1` [Compound 193] yielded an inhibition at 0.5 µM of 100%.
`Cc1ccc(NS(C)(=O)=O)c(C(=O)N2CCCC[C@H]2c2cc3nc(N4CCC4)cc(N4CCOCC4)n3n2)c1` [Compound 194] gave an inhibition at 0.5 µM of 100%.
In the case of `Cc1cn2nc([C@@H]3CCCCN3C(=O)c3cc(Cl)ccc3NS(C)(=O)=O)cc2nc1N1C[C@H](O)[C@@H](O)C1` [Compound 197], the inhibition at 0.5 µM is reported as 100%.
Work on `Cc1cn2nc([C@@H]3CCCCN3C(=O)c3cc(Cl)ccc3NS(C)(=O)=O)cc2nc1N1CC[C@@H](CO)C1` [Compound 198] yielded an inhibition at 0.5 µM of 95%.
For `Cc1cn2nc([C@@H]3CCCCN3C(=O)c3cc(Cl)ccc3NS(C)(=O)=O)cc2nc1N1CCC[C@H]1C#N` [Compound 200], the inhibition at 0.5 µM was 95%.
Work on `Cc1cn2nc([C@@H]3CCCCN3C(=O)c3cc(Cl)ccc3NS(C)(=O)=O)cc2nc1N1C[C@@H](N)C2(CC2)C1` [Compound 201] yielded an inhibition at 0.5 µM of 64%.
`Cc1cn2nc([C@@H]3CCCCN3C(=O)c3cc(Cl)ccc3NS(C)(=O)=O)cc2nc1N1CC[C@H](N)C1` [Compound 202] gave an inhibition at 0.5 µM of 100%.
`Cc1cn2nc([C@@H]3CCCCN3C(=O)c3cc(Cl)ccc3NS(C)(=O)=O)cc2nc1N1CCC[C@H]1CN` [Compound 203] was tested, and the inhibition at 0.5 µM was 86%.
Work on `Cc1cn2nc([C@@H]3CCCCN3C(=O)c3cc(Cl)ccc3NS(C)(=O)=O)cc2nc1N1CC[C@@H](C)C1` [Compound 204] yielded an inhibition at 0.5 µM of 98%.
`Cc1cn2nc([C@@H]3CCCCN3C(=O)c3cc(Cl)ccc3NS(C)(=O)=O)cc2nc1N1CCC(C)(C#N)C1` (stereo partly shown) [Compound 205] showed an inhibition at 0.5 µM of 91%.
For `Cc1cn2nc([C@@H]3CCCCN3C(=O)c3cc(Cl)ccc3NS(C)(=O)=O)cc2nc1N1CCC[C@H]1CN1CCCC1` [Compound 206], the inhibition at 0.5 µM was 99%.
With `Cc1cn2nc([C@@H]3CCCCN3C(=O)c3cc(Cl)ccc3NS(C)(=O)=O)cc2nc1N1CCC(Oc2ccccc2)C1` (stereo partly shown) [Compound 208] the inhibition at 0.5 µM was 95%.
In the case of `Cc1cn2nc([C@@H]3CCCCN3C(=O)c3cc(Cl)ccc3NS(C)(=O)=O)cc2nc1N1CCC(c2ccccn2)C1` (stereo partly shown) [Compound 209], the inhibition at 0.5 µM is reported as 88%.
Molecule `Cc1cn2nc([C@@H]3CCCCN3C(=O)c3cc(Cl)ccc3NS(C)(=O)=O)cc2nc1N1CCC[C@H]1CO` [Compound 210] has an inhibition at 0.5 µM of 81%.
In the case of `Cc1cn2nc([C@@H]3CCCCN3C(=O)c3cc(Cl)ccc3NS(C)(=O)=O)cc2nc1N1C[C@@H](N)C[C@H]1CO` [Compound 211], the inhibition at 0.5 µM is reported as 100%.
Work on `Cc1cn2nc([C@@H]3CCCCN3C(=O)c3cc(Cl)ccc3NS(C)(=O)=O)cc2nc1N1CC(Oc2ccccn2)C1` [Compound 212] yielded an inhibition at 0.5 µM of 88%.
`Cc1cn2nc([C@@H]3CCCCN3C(=O)c3cc(Cl)ccc3NS(C)(=O)=O)cc2nc1N1CC(CO)C1` [Compound 213] showed an inhibition at 0.5 µM of 99%.

Same assay, conditions: human respiratory syncytial virus, HEp-2, RSV-induced cytopathic effects, Hep2 cells; class symbols
`Cc1ccc(NS(C)(=O)=O)c(C(=O)N2CCCC[C@H]2c2cc3nc(N4CC[C@H](N)C4)c(C)cn3n2)c1` [Compound 190] gave an EC50 of 0.1 to 100 nM.
`Cc1ccc(NS(C)(=O)=O)c(C(=O)N2CCCC[C@H]2c2cc3nc(N4CC(N)C4)c(C)cn3n2)c1` [Compound 191] gave an EC50 of 0.1 to 100 nM.
`Cc1cn2nc([C@@H]3CCCCN3C(=O)c3cc(N)ccc3NS(C)(=O)=O)cc2nc1N1CC(O)C1` [Compound 192] showed an EC50 of 0.1 to 100 nM.
`CS(=O)(=O)Nc1ccc(N)cc1C(=O)N1CCCC[C@H]1c1cc2nc(N3CCC3)cc(N3CCOCC3)n2n1` [Compound 193] was tested, and the EC50 was 0.1 to 100 nM.
`Cc1ccc(NS(C)(=O)=O)c(C(=O)N2CCCC[C@H]2c2cc3nc(N4CCC4)cc(N4CCOCC4)n3n2)c1` [Compound 194] showed an EC50 of 0.1 to 100 nM.
Molecule `Cc1cn2nc([C@@H]3CCCCN3C(=O)c3cc(Cl)ccc3NS(C)(=O)=O)cc2nc1N1C[C@H](O)[C@@H](O)C1` [Compound 197] has an EC50 of 0.1 to 100 nM.
In the case of `Cc1cn2nc([C@@H]3CCCCN3C(=O)c3cc(Cl)ccc3NS(C)(=O)=O)cc2nc1N1CC[C@@H](CO)C1` [Compound 198], the EC50 is reported as 0.1 to 100 nM.
For `Cc1cn2nc([C@@H]3CCCCN3C(=O)c3cc(Cl)ccc3NS(C)(=O)=O)cc2nc1N1CCC[C@H]1C#N` [Compound 200], the EC50 was 0.1 to 100 nM.
`Cc1cn2nc([C@@H]3CCCCN3C(=O)c3cc(Cl)ccc3NS(C)(=O)=O)cc2nc1N1C[C@@H](N)C2(CC2)C1` [Compound 201] showed an EC50 of 101 to 1000 nM.
`Cc1cn2nc([C@@H]3CCCCN3C(=O)c3cc(Cl)ccc3NS(C)(=O)=O)cc2nc1N1CC[C@H](N)C1` [Compound 202] gave an EC50 of 0.1 to 100 nM.
`Cc1cn2nc([C@@H]3CCCCN3C(=O)c3cc(Cl)ccc3NS(C)(=O)=O)cc2nc1N1CCC[C@H]1CN` [Compound 203] was tested, and the EC50 was 101 to 1000 nM.
`Cc1cn2nc([C@@H]3CCCCN3C(=O)c3cc(Cl)ccc3NS(C)(=O)=O)cc2nc1N1CC[C@@H](C)C1` [Compound 204] was tested, and the EC50 was 0.1 to 100 nM.
`Cc1cn2nc([C@@H]3CCCCN3C(=O)c3cc(Cl)ccc3NS(C)(=O)=O)cc2nc1N1CCC(C)(C#N)C1` (stereo partly shown) [Compound 205] was tested, and the EC50 was 0.1 to 100 nM.
In the case of `Cc1cn2nc([C@@H]3CCCCN3C(=O)c3cc(Cl)ccc3NS(C)(=O)=O)cc2nc1N1CCC[C@H]1CN1CCCC1` [Compound 206], the EC50 is reported as 0.1 to 100 nM.
Work on `Cc1cn2nc([C@@H]3CCCCN3C(=O)c3cc(Cl)ccc3NS(C)(=O)=O)cc2nc1N1CCC(Oc2ccccc2)C1` (stereo partly shown) [Compound 208] yielded an EC50 of 0.1 to 100 nM.
In the case of `Cc1cn2nc([C@@H]3CCCCN3C(=O)c3cc(Cl)ccc3NS(C)(=O)=O)cc2nc1N1CCC(c2ccccn2)C1` (stereo partly shown) [Compound 209], the EC50 is reported as 101 to 1000 nM.
Work on `Cc1cn2nc([C@@H]3CCCCN3C(=O)c3cc(Cl)ccc3NS(C)(=O)=O)cc2nc1N1CCC[C@H]1CO` [Compound 210] yielded an EC50 of 101 to 1000 nM.
Molecule `Cc1cn2nc([C@@H]3CCCCN3C(=O)c3cc(Cl)ccc3NS(C)(=O)=O)cc2nc1N1C[C@@H](N)C[C@H]1CO` [Compound 211] has an EC50 of 0.1 to 100 nM.
`Cc1cn2nc([C@@H]3CCCCN3C(=O)c3cc(Cl)ccc3NS(C)(=O)=O)cc2nc1N1CC(Oc2ccccn2)C1` [Compound 212] showed an EC50 of 101 to 1000 nM.
With `Cc1cn2nc([C@@H]3CCCCN3C(=O)c3cc(Cl)ccc3NS(C)(=O)=O)cc2nc1N1CC(CO)C1` [Compound 213] the EC50 was 0.1 to 100 nM.
